The assay deals with T1, HDM2 (Homo sapiens, UniProt Q00987).
T1 construct: Thioredoxin (N); made in house; host or cells: E. coli strain BL21(DE3)Rosetta
Put plainly: HDM2 FRET assay (inhibition of binding of FITC labeled p53-pocket peptide to HDM2). Conditions: for pIC50: read-out: FRET IC50. An outline of the steps:
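Signal is read as the 520/495 nm emission ratio and converted to percent inhibition; nonlinear sigmoidal regression yields IC50. The assay mixes HDM2 (0.5 nM), FITC-p53 peptide (3 nM) and Tb anti-His antibody (0.25 nM) at 0.1% DMSO.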

The mark [1] stands for this setting: 0.5 nM HDM2 (residues 17 to 125), 3nM peptide, two hour incubation at room temperature.

pIC50: −log10 of the molar value. Where two headings read alike, the source gives them in different places.

T1 sequence (Q00987 17-125): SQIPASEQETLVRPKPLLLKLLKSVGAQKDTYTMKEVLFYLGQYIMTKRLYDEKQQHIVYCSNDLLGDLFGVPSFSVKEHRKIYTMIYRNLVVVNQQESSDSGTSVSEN

Consider `C[C@@H](Nc1nc(-c2noc(=O)[nH]2)nc2nc(N(C)Cc3cscn3)n(C[C@H]3CC[C@H](C)CC3)c12)C1CCC1` [Example 11.74, 3-(6-{[(1R)-1-cyclobutylethyl]amino}-7-[(trans-4-methylcyclohexyl)methyl]-8-[methyl(1,3-thiazol-4-ylmethyl)amino]-7H-purin-2-yl)-1,2,4-oxadiazol-5(2H)-one], for which the pIC50 (Table 11) is 6.88.
For the molecule `CCC[C@@H](Nc1nc(C(=O)O)nc2nc(-c3cccc(C)c3)n(Cc3ccc(C(F)(F)F)cc3)c12)C1CCC1` [Example 7.5, 6-{[(1R)-1-cyclobutylbutyl]amino}-8-(3-methylphenyl)-7-[4-(trifluoromethyl)benzyl]-7H-purine-2-carboxylic acid], for the setting “Table 7”, the pIC50 was 6.85.
Consider `Cc1cccc(-c2nc3nc(C(=O)O)nc(NC4CCCCC4)c3n2Cc2ccc(C(F)(F)F)cc2)c1` [Example 6.28, 6-(cyclohexylamino)-8-(3-methylphenyl)-7-[4-(trifluoromethyl)benzyl]-7H-purine-2-carboxylic acid], for which the negative-log IC50 (pIC50) (Table 6) was 6.23.
`Cc1cccc(-c2nc3ncnc(N[C@H](CCCO)C4CCC4)c3n2Cc2ccc(C(F)(F)F)cc2)c1` [Example 7.3, (4R)-4-cyclobutyl-4-({8-(3-methylphenyl)-7-[4-(trifluoromethyl)benzyl]-7H-purin-6-yl}amino)butan-1-ol]: the pIC50 (Table 7) was 5.49.
For `CC1CCN(C)C(c2nc3nc(C(=O)O)nc(N[C@H](C)C4CCC4)c3n2C[C@H]2CC[C@H](C)CC2)C1` (stereo partly drawn) [Example 10.33, 6-(((R)-1-Cyclobutylethyl)amino)-8-(1,4-dimethylpiperidin-2-yl)-7-((trans-4-methylcyclohexyl)methyl)-7H-purine-2-carboxylic acid], the pIC50 (Table 10) was 7.75.
Turning to `Cc1cccc(-c2nc3nc(C(=O)O)nc(N(C)C(C4CC4)C4CC4)c3n2Cc2ccc(C(F)(F)F)cc2)c1` [Example 6.84, 6-[(dicyclopropylmethyl)(methyl)amino]-8-(3-methylphenyl)-7-[4-(trifluoromethyl)benzyl]-7H-purine-2-carboxylic acid], the inhibition at 1 µM (read-out: inh. at 1000 nM (FRET)) was determined as 46%.
With `C[C@@H](Nc1nc(-c2noc(=O)[nH]2)nc2nc(N3CCS(=O)(=O)CC3)n(C[C@H]3CC[C@H](C)CC3)c12)C1CCC1` [Example 11.79, 3-(6-{[(1R)-1-cyclobutylethyl]amino}-8-(1,1-dioxidothiomorpholin-4-yl)-7-[(trans-4-methylcyclohexyl)methyl]-7H-purin-2-yl)-1,2,4-oxadiazol-5(2H)-one], where the note is “Table 11”, the pIC50 is 7.48.
As to `C[C@@H](Nc1nc(C(=O)O)nc2nc(N3CCCC(C)(C)C3)n(Cc3ccc(C(F)(F)F)cc3)c12)C1CCC1` [Example 9.45, 6-{[(1R)-1-cyclobutylethyl]amino}-8-(3,3-dimethylpiperidin-1-yl)-7-[4-(trifluoromethyl)benzyl]-7H-purine-2-carboxylic acid], the negative logarithm of the IC50 (pIC50) (Table 9) was 8.12.
As to `COCC1CCCCN1c1nc2nc(-c3noc(=O)[nH]3)nc(N[C@H](C)C3CCC3)c2n1C[C@H]1CC[C@H](C)CC1` (stereo partly drawn) [Example 11.39, 3-(6-{[(1R)-1-cyclobutylethyl]amino}-8-[2-(methoxymethyl)piperidin-1-yl]-7-[(trans-4-methylcyclohexyl)methyl]-7H-purin-2-yl)-1,2,4-oxadiazol-5(2H)-one], for the setting “Table 11”, the pIC50 is 8.01.
Turning to `CC(C)CC1CCCN1c1nc2nc(-c3noc(=O)[nH]3)nc(N[C@H](C)C3CCC3)c2n1Cc1ccc(C(F)(F)F)cc1` (stereo partly drawn) [Example 9.91, 3-(6-{[(1R)-1-cyclobutylethyl]amino}-8-[2-(2-methylpropyl)pyrrolidin-1-yl]-7-[4-(trifluoromethyl)benzyl]-7H-purin-2-yl)-1,2,4-oxadiazol-5(4H)-one], under “Table 9”, the negative logarithm of the IC50 (pIC50) is 7.71.
With `C[C@H]1CC[C@H](Cn2c(C3(F)COC3)nc3nc(-c4noc(=O)[nH]4)nc(-c4cncc(Cl)c4)c32)CC1` [Example 23.28, 3-{6-(5-chloropyridin-3-yl)-8-(3-fluorooxetan-3-yl)-7-[(trans-4-methylcyclohexyl)methyl]-7H-purin-2-yl}-1,2,4-oxadiazol-5(4H)-one], the pIC50 (Table 23) was 7.20.
On to `CC(C)c1ccnc(-c2nc3nc(-c4cnn[nH]4)nc(N[C@H](C)C4CCC4)c3n2Cc2ccc(C(F)(F)F)cc2)c1` [Example 12.3, N-[(1R)-1-cyclobutylethyl]-8-[4-(propan-2-yl)pyridin-2-yl]-2-(1H-1,2,3-triazol-5-yl)-7-[4-(trifluoromethyl)benzyl]-7H-purin-6-amine], for which the pIC50 under setting [1] is 6.27.
On the same count and under the same terms, next, `C[C@@H](Nc1nc(-c2noc(=O)[nH]2)nc2nc(-c3cc(C(C)(C)O)c(F)cn3)n(C[C@H]3CC[C@H](C)CC3)c12)C1CCC1` [Example 15.9, 3-(6-(((R)-1-cyclobutylethyl)amino)-8-(5-fluoro-4-(2-hydroxypropan-2-yl)pyridin-2-yl)-7-((trans-4-methylcyclohexyl)methyl)-7H-purin-2-yl)-1,2,4-oxadiazol-5(4H)-one]: 8.40.
In the case of `C[C@@H](Nc1nc(-c2n[nH]c(=O)o2)nc2nc(N3CCO[C@H](C)[C@@H]3C)n(C[C@H]3CC[C@H](C)CC3)c12)C1CCC1` (single isomer, unassigned) [Example 11.158], the pIC50 (Table 11) was 7.89.
For `CC(=O)N1C[C@@H](C)N(c2nc3nc(-c4noc(=O)[nH]4)nc(N[C@H](C)C4CCC4)c3n2C[C@H]2CC[C@H](C)CC2)C[C@@H]1C` [Example 17.22, 3-{8-[(2R,5S)-4-acetyl-2,5-dimethylpiperazin-1-yl]-6-{[(1R)-1-cyclobutylethyl]amino}-7-[(trans-4-methylcyclohexyl)methyl]-7H-purin-2-yl}-1,2,4-oxadiazol-5(4H)-one], the pIC50 (Table 17.2) is 8.36.
With `CC(C)c1ccnc(-c2nc3nc(-c4nnn[nH]4)nc(N[C@H](C)C4CCC4)c3n2Cc2ccc(C(F)(F)F)cc2)c1` [Example 12.1, N-[(1R)-1-cyclobutylethyl]-8-[4-(propan-2-yl)pyridin-2-yl]-2-(1H-tetrazol-5-yl)-7-[4-(trifluoromethyl)benzyl]-7H-purin-6-amine], the pIC50 under setting [1] is 8.08.
Same read-out and setting: next, `CC(C)(O)c1ccnc(-c2nc3nc(-c4noc(=O)[nH]4)nc(-c4cccc(Cl)c4)c3n2C[C@H]2CC[C@H](C)CC2)c1` [Example 16.36, 3-{6-(3-chlorophenyl)-8-[4-(1-hydroxy-1-methylethyl)pyridin-2-yl]-7-[(trans-4-methylcyclohexyl)methyl]-7H-purin-2-yl}-1,2,4-oxadiazol-5(4H)-one]: 7.58.
As to `C[C@@H]1CCCCN1c1nc2nc(-c3nc(=O)o[nH]3)nc(N[C@H](C)C3CCC3)c2n1C[C@H]1CC[C@H](C)CC1` (single isomer, unassigned) [Example 11.58], the negative logarithm of the IC50 (pIC50) (Table 11) was 8.27.
Take `CC[C@@H]1COCCN1c1nc2nc(-c3n[nH]c(=O)o3)nc(-c3cccc(Cl)c3)c2n1C[C@H]1CC[C@H](C)CC1` [Example 16.58, 5-{6-(3-chlorophenyl)-8-[(3R)-3-ethylmorpholin-4-yl]-7-[(trans-4-methylcyclohexyl)methyl]-7H-purin-2-yl}-1,3,4-oxadiazol-2(3H)-one]: the negative logarithm of the IC50 (pIC50) under setting [1] was 7.67.
Still for that read-out and setting: the figure for `C[C@@H](Nc1nc(NCC(=O)O)nc2nc(N3CCOC[C@H]3c3ccccc3)n(C[C@H]3CC[C@H](C)CC3)c12)C1CCC1` [Example 13.6, N-(6-{[(1R)-1-cyclobutylethyl]amino}-7-[(trans-4-methylcyclohexyl)methyl]-8-[(3R)-3-phenylmorpholin-4-yl]-7H-purin-2-yl)glycine] is 6.83.

The values are drawn from patent EP2951180B1, “2,6,7,8 SUBSTITUTED PURINES AS HDM2 INHIBITORS” (Merck Sharp & Dohme Corp., priority 2013, dated 2014).
